# Measurements reported in US20240418723A1, “SEQUENTIAL TREATMENTS AND BIOMARKERS TO REVERSE RESISTANCE TO KINASE INHIBITORS” (Queen Mary University of London, priority 2021, published 2024).
# Key:
# [1] = tested on: P31/Fuj cells; assay: Phosphoproteomics (LC-MS/MS) and kinase network analysis of treated P31/Fuj cells
# Procedure: To study ATRA effect over the phosphoproteome, P31/Fuj cells (10×10^6 cells at 0.5×10^6 cell/mL) were seeded in T75 flask and treated with either Et-OH, 1 μM ATRA or 10 μM ATRA for 5 days. […] For both experiments, cells were collected by centrifugation (1500 rpm for 5 min at 5° C.), then cell pellets were washed twice with ice cold PBS supplemented with phosphatase inhibitors (1 mM Na3VO4, 1 mM NaF) and stored at −80° C. Pellets were processed for phosphoproteomics analysis as indicated below.
# In brief, cell pellets were lysed in 300 μL of urea buffer (8 M urea in 20 mM HEPES, pH 8.0, supplemented with 1 mM Na3VO4, 1 mM NaF, 1 mM Na4P2O7 and 1 mM P-glycerophosphate). Lysates were further homogenized by sonication (30 cycles of 30 s on 30 s off; Diagenode Bioruptor® Plus) and insoluble material was removed by centrifugation. Protein was quantified using BCA (Thermo Fisher Scientific). Then, 500 μg of protein were subjected to cysteine alkylation using sequential incubation with 10 mM dithiothreitol (DDT) and 16.6 mM iodoacetamide (IAM) for 1 h and 30 min, respectively, at 25° C. with agitation. Trypsin beads (50% slurry of TLCK-trypsin; Thermo Fisher Scientific; Cat. #20230) were equilibrated with 3 washes with 20 mM HEPES (pH 8.0), the urea concentration in the protein suspensions was reduced to 2 M by the addition of 20 mM HEPES (pH 8.0), 100 μL of equilibrated trypsin beads were added and the samples were incubated overnight at 37° C. Trypsin beads were removed by centrifugation (2000×g at 5° C. for 5 min) and the resulting peptide solutions were desalted through Oasis HLB cartridges (Waters) following the manufacturer's indications. Briefly, cartridges were set in a vacuum manifold device and the pressure was adjusted to 5 mmHg. Then, cartridges were conditioned with 1 mL acetonitrile (ACN) and equilibrated with 2.5 mL of wash solution (0.1% trifluoroacetic acid (TFA), 2% ACN). Peptides were loaded in the cartridges and washed with 1 mL of wash solution. Finally, peptides were eluted with 500 μL of glycolic acid buffer 1 (1 M glycolic acid, 5% TFA, 50% ACN). Enrichment of phosphorylated peptides was performed with TiO2 Beads (GL Sciences). The eluents were normalized to 1 mL with glycolic acid buffer 2 (1 M glycolic acid, 5% TFA, 80% ACN) and incubated with 50 μl of TiO2 buffer (50% slurry in 1% TFA) for 5 min at room temperature. TiO2 beads were packed by centrifugation into empty spin columns (Glygen Corporation; Cat. TT2EMT) previously washed with ACN. TiO2 beads were sequentially washed by centrifugation (1500×g for 3 min) with 100 μL of glycolic acid buffer 2, ammonium acetate solution (100 mM ammonium acetate in 25% ACN) and twice with neutral solution (10% ACN). For phosphopeptide elution, spin tips were transferred to fresh tubes, 50 μL of elution solution (5% NH4OH, 7.5% ACN) were added and tips were centrifuged at 1500×g for 3 min. The elution step was repeated a total of 4 times. Finally, samples were snap frozen, dried in a SpeedVac and phosphopeptide pellets were stored at −80° C.
# [2] = tested on: acute myeloid leukemia; settings: Smitheman et al. (2019); cited from earlier work
# [3] = tested on: P31/Fuj AML cells; assay: Sequential treatment of P31/Fuj cells (ATRA or LSD1 inhibitor 5 days, then MEKi 3 days; also co-treatment and reverse treatment): cell viability, cell number, apoptosis, CDI; assay type: cell-based
# Procedure: The Bliss independence model was used to derive coefficients of drug interaction (CDI) values, where CDI <1 indicates significant priming by the […] (synergistic effect).
# For the proliferation/viability assays, cells were seeded in T75 flasks (0.5×10^6 cells/mL of RPMI/FBS medium) and exposed for 5 days to either vehicle or epigenetic modifier. Unless otherwise specified, the final concentration for GSK2879552 (LSD1i), […] (EZH2i), pinometostat (DOT1Li) and ATRA was 1 μM while for decitabine (DNMTAi) and vorinostat (HDACi) was 100 nM; all epigenetic inhibitors were diluted in DMSO, while ATRA was diluted in Et-OH. Vehicle concentration was kept at 0.1%. […] The final concentration of DMSO was kept at 0.1%. Finally, cells were transferred to 96-well plates (100 μL per well in 3 technical replicates per condition) and cell viability and proliferation were assessed using Guava and ApoTox-Glo Triplex analyses, as indicated below.
# For Guava analysis, cells were stained with Guava ViaCount reagent (Luminex #4000-0040) in 96-well plates, by mixing 150 μL of cell suspension with 75 μL of reagent, and left to incubate for a minimum of 10 minutes in the dark, after which they were processed through a Guava easyCyte flow cytometer (Luminex #0500-5005). Flow cytometry data were analysed using CytoSoft (v2.5.7). Viability and cell number values were expressed relative to vehicle control.
# For ApoTox-Glo analysis, cell suspensions were transferred to opaque 96-well plates (100 μL per well) and viability and apoptosis measured using ApoTox-Glo Triplex Assay (Promega #G6320). 20 μL of Viability/Cytotoxicity reagent (containing GF-AFC and bis-AAF-R110 substrates) were added to each well, then incubated at 37° C. for 1 hour. Live cell and cytotoxicity outputs were measured on FLUOstar Omega microplate reader (BMG Labtech). To obtain the live cell output, fluorescence was measured at 355EX/520EM (wavelengths in nm); for the cytotoxicity output, fluorescence was measured at 485EX/520EM. Following this, 100 μL of Caspase-Glo 3/7 reagent were added to each well and incubated at 25° C. for 1 hour. Luminescence was then measured on FLUOstar Omega microplate reader (BMG Labtech). The fluorescence and luminescence signals thus obtained were corrected to the respective background controls (culture medium with no cells). Relative cell number values were obtained by normalising live cell outputs to vehicle control. Apoptosis values were obtained by dividing luminescence outputs to the respective live cell outputs, then normalising to vehicle control.
# The extent of drug interaction was calculated in Microsoft Excel 2016 using the CDI formula AB/(A*B), where AB is the normalized reduction in cell viability of the sequential treatment, and A and B are the effects of single treatments. Statistical significance of CDI values for each AML sample was determined using a one sample t-test (base R package) with the null hypothesis being that the mean Log2(CDI) equals 0.
# [4] = LSD1i by itself, 2.5 z-score threshold (FIG. 6C)
# [5] = LSD1i relative to control (FIGS. 6 C, D, 18B)
# [6] = LSD1i treatment, P31/Fuj (FIG. 19A)
# [7] = LSD1i and MEKi co-treatment 3 days, P31/Fuj (FIG. 10B)
smiles,measurement,setting,value
O=C(O)c1ccc(CN2CCC(CN[C@@H]3C[C@H]3c3ccccc3)CC2)cc1 [GSK2879552],phosphorylation sites affected by kinase inhibitors after LSD1i pre-treatment versus vehicle,"[1]; 0.5 μM LSD1i 5 days, then 1 μM kinase inhibitor 1 h, P31/Fuj (FIG. 6B)",fewer phosphorylation sites
same,c-Myc phosphorylation at S62,"[1]; LSD1i 5 days, P31/Fuj (FIG. 6F)",reduced
same,kinase activities (node centrality),[1]; LSD1i by itself relative to control (FIG. 6D),decreased more kinase activities than it increased
same,number of network axes with decreased enrichment,[1]; [4],18
same,number of network axes with increased enrichment,[1]; [4],6
same,"effect of PI3K, AKT, MEK and ERK inhibitors in increasing phosphorylation of epigenetic regulators and histones, CDKs, cyclins and DNA repair proteins","[1]; LSD1i pre-treatment (FIG. 6H, 19 D, E)",blunted
same,circuitries containing AKT and MTOR,[1]; [5],decrease
same,circuitries with PKCI and MEK1 (MAP2K1),[1]; [5],increased
same,AHNAK pS5110 phosphorylation,[1]; [6],increased
same,"PI3K/AKT pathway markers GSK3B pS13 and RPS6 p236, and MAPK pathway marker MAPK3 (ERK1) pT202",[1]; [6],decreased
same,kinase inhibitor-induced increase in phosphorylation of LSD1/KDM1A at T95 and S93,"[1]; control cells versus LSD1i pre-treated cells (FIG. 6G, 19A)",not in cells pre-treated with LSD1i
same,differentiation and cytotoxic response in combination with all-trans retinoic acid (ATRA),[2],enhances differentiation and promotes cytotoxic response
same,"Log2 CDI, reverse treatment","[3]; 3-day pre-treatment with MEKi followed by 5-day LSD1i, additive to strongly antagonistic, P31/Fuj",> 0
same,"Log2 CDI based on cell number and apoptosis, 5+3 days sequential treatment","[3]; LSD1i 5 days then MEKi 3 days, all concentrations above 10 nM, strongly synergistic, P31/Fuj (FIG. 10A)",below 0
same,sensitisation to the effects of MEKi (suppressing proliferation and inducing apoptosis),"[3]; LSD1i 5 days then MEKi 3 days, dose-dependent manner, P31/Fuj cells (FIG. 2E)",sensitised P31/Fuj cells to the effects of MEKi
same,"CDI for apoptosis, 3-day co-treatment",[3]; [7],mildly synergistic
same,"CDI for proliferation, 3-day co-treatment",[3]; [7],near additive
